Measured values: patent US20250195528A1, “DOSE REGIMEN OF VICASINABIN” (Hoffmann-La Roche Inc., priority 2022, published 2025)
Entries after “also recorded” stand apart in the source; their conditions may differ. Where two headings read alike, the source gives them in different places.

Columns and labels:
[1] = system: laser-induced neovascularization; format: in vivo, rat
Experimental: Pharmacological studies were performed in vitro and in vivo to investigate the potency, selectivity and activity of RO6868847. Pharmacological effects were determined in vivo in two different diabetic animal models which include the streptozotocin (STZ)-induced rat Type 1 diabetes and genetic Type 2 diabetes mouse models as well as in two acute models with acute inflammatory stimulus (LPS-injections) or laser injury (CNV). Additional in vitro pharmacology studies were performed to explore the pharmacological effect of RO6868847 and the suitability of the assays as biomarkers of target engagement and pharmacodynamic effect (PD) in human whole blood obtained from either healthy volunteers or diabetic patients.
The diversity of the tested models (including acute challenge versus disease-modifying models) and the absence of a recommended nonclinical DME/DR model with proven clinical translatability presents a challenge for the estimation of pharmacologically active exposure in humans.
Exposure was derived from satellite animals or extrapolated from previous PK or PD studies in the same species.
Based on this integrated assessment, the pharmacologically active exposure range observed in rats spans 2 logs, with an upper bound (unbound AUC0-24 [S-epimer]=546 ng·hr/mL) corresponding to the full effect at 10 mg/kg in a rat STZ-induced Type 1 diabetes model and the lower bound (unbound AUC0-24 [S-epimer]=2.8 ng·hr/mL) corresponding to 50% decrease in disease marker (hypoerfluorescence area) in a laser-induced NV rat model.

[2] = system: 15-lipoxygenase, MAGL, diacylglycerol lipase, or FAAH enzymes; assay: Functional cellular assays, enzymes of the endocannabinoid pathway; format: cell-based; settings: up to 500 μM in human targets
CB2 receptor on B-cells = molecular target: T1, CB2 receptor on B-cells (Homo sapiens, UniProt P34972); assay: CB2 receptor target engagement on B-cells in blood of participants of Study BP40387; format: in vivo
T1 construct: B cells show a low but robust surface expression of CB2; endogenous in cells; host or cells: B cells in human whole blood (healthy participants, diabetic patients)
Experimental: In the Phase I single ascending dose (SAD) and multiple ascending dose (MAD) study (BP40387), CB2R-TE was measured in blood from healthy participants that received single and multiple 0.75-300 mg doses of RO6868847. Based on clinical RO6868847 pharmacokinetics (PK) and pharmacodynamics (PD; measured by CB2R-TE) data and accounting for the difference between healthy and diabetics subjects, the lower end of the 0.75 mg to 300 mg-dose range is expected to achieve approximately up to half-maximum CB2R-TE, whereas the higher end of that dose range is predicted to achieve maximum CB2R-TE.
In example 2, target engagement of RO6868847 was assessed on circulating B-cells from whole blood samples utilizing a newly developed exploratory flow cytometry assay to monitor RO6868847-induced CB2 receptor internalization on B-cells. […] Upon treatment discontinuation CB2 receptor surface expression returned to baseline approximately within 1 week. Target engagement appeared to reach a plateau at doses of 100 mg RO6868847 with only marginal increases at higher doses of RO6868847. In example 2, pro-inflammatory cytokine production was induced by ex vivo stimulation with LPS in freshly obtained whole blood samples, to measure downstream markers of RO6868847-mediated CB2 receptor internalization and explore its pharmacological profile. Serum levels of TNF-α, G-CSF, IL-1β, and […], of participants in Study BP40387 were assessed to investigate the changes of these cytokines in the presence of repeated dose administration of up to 300 mg RO6868847 once-daily for 14 days. […] It should be noted that the IL1-β analysis was negatively affected by a substantial proportion of baseline data, not being reportable (see FIG. 8), especially at the highest tested doses of 300 mg of RO6868847. Substantial variability in these measurements was observed. However, this was expected and no dedicated predefined statistical analysis was performed since cohort sizes were small for this exploratory assessment.

human CB1 = human CB1 (Homo sapiens, UniProt P21554); assay: Human CB1 cAMP assay; format: cell-based
Text: Inhibition of cAMP accumulation in Chinese hamster ovary cells stably expressing recombinant CB2 was used to determine the functional potency of RO6868847 for different CB2 species and the selectivity over the closely related CB1.

[3] = Study BP40387 Part 1 (SAD) pharmacokinetics, healthy participants; format: in vivo, human; settings: for Tmax / half-life / AUC / Cmax: both sexes, human, plasma
Experimental: In Part 1 (SAD) of Study BP40387, in the fasted state, RO6868847 was overall rapidly absorbed; however, the Tmax appeared to shift with increasing dose. Individual Tmax ranged between 1 to 6 hours at 100 mg and 300 mg RO6868847.

[4] = single oral 0.75 mg, fasted, geo mean
[5] = single oral 3.0 mg, fasted, geo mean
[6] = single oral 10 mg, fasted, geo mean
[7] = single oral 30 mg, fasted, geo mean
[8] = single oral 100 mg, fasted, geo mean
[9] = single oral 300 mg, fasted, geo mean

T1 sequence (P34972 whole entry): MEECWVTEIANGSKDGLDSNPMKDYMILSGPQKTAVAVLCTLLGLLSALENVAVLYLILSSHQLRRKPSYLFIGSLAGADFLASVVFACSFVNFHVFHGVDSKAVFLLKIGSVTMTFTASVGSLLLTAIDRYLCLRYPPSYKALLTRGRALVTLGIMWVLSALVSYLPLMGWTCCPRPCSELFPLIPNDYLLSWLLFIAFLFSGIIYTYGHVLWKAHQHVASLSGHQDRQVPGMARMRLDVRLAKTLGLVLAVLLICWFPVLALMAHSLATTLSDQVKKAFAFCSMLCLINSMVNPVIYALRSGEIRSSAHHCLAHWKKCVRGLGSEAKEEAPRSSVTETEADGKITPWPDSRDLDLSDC
human CB1, sequence (P21554 whole entry): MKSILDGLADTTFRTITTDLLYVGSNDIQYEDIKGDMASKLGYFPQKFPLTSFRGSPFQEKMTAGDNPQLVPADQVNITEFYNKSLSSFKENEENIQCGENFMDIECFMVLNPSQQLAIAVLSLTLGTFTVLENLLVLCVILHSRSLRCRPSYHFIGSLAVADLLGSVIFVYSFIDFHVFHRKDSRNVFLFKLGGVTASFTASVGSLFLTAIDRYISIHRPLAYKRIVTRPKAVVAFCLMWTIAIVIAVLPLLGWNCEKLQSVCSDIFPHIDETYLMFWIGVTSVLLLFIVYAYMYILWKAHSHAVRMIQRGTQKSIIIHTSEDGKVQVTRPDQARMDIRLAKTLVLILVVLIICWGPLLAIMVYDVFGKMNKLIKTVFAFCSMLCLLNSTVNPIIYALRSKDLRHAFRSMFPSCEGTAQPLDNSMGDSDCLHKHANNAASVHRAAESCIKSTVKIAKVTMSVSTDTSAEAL

## Cn1nnnc1Cn1nnc2c(N3CC[C@H](O)C3)nc(C(C)(C)C)nc21 [RO6868847, (3S)-1-[5-tert-butyl-3-[(1-methyltetrazol-5-yl)methyl]triazolo[4,5-d]pyrimidin-7-yl]pyrrolidin-3-ol]
[1]; rat, at unbound AUC0-24 2.8 ng·hr/mL
  decrease in disease marker (hyperfluorescence area): 50%
[1]; rat, in vivo
  unbound AUC0-24 [S-epimer], lower bound of pharmacologically active exposure: 2.8 ng·hr/mL
[1]; rodent laser injury model
  retinal hyperfluorescence: reduction of retinal hyperfluorescence
[2]
  activity at endocannabinoid pathway enzymes: no activity
CB2 receptor on B-cells; after treatment discontinuation
  time for CB2 receptor surface expression to return to baseline: ≤ 1 week
CB2 receptor on B-cells; multiple dose
  dose at which target engagement reaches a plateau: 100 mg
CB2 receptor on B-cells; single and multiple oral doses up to 300 mg
  CB2 receptor target engagement on B-cells in blood: reversible, dose-dependent and sustained; also recorded: dose-dependent, long-lasting, but reversible
Human CB1
  EC50: > 10 µM
  IC50: > 10 µM
Human CB1; CB1 EC50 over CB2 EC50
  CB1/CB2 Ratio (functional selectivity): >3600 fold
Human CB1; highest concentration of 10 μM
  receptor activation or inhibition: no receptor activation or inhibition
[3]; oral, Study BP40387, fasted conditions, across doses, read-out: median Tmax
  Tmax: 1 to 4 h
[3]; oral, single dose 100 mg and 300 mg, fasted, read-out: Individual Tmax
  Tmax: 1 to 6 h
[3]; oral, single dose, range across doses, read-out: apparent terminal elimination half-life
  half-life: 6.95 to 18.5 h
[3]; po, 0.75 mg, single oral 0.75 mg, fasted, median, read-out: Tmax
  Tmax: 1 h
[3]; po, 3 mg, single oral 3.0 mg, fasted, median, read-out: Tmax
  Tmax: 1 h
[3]; po, 10 mg, single oral 10 mg, fasted, median, read-out: Tmax
  Tmax: 1.75 h
[3]; po, 30 mg, single oral 30 mg, fasted, median, read-out: Tmax
  Tmax: 1.5 h
[3]; po, 100 mg, single oral 100 mg, fasted, median, read-out: Tmax
  Tmax: 1.75 h
[3]; po, 300 mg, single oral 300 mg, fasted, median, read-out: Tmax
  Tmax: 3 h
[3]; [4]
  AUC: 112 ng·h/mL
  Cmax: 9.92 ng/mL
[3]; single oral 0.75 mg, fasted, geo mean, read-out: t1/2 (converted)
  half-life: 6.89 h
[3]; [5]
  AUC: 435 ng·h/mL
  Cmax: 40 ng/mL
[3]; single oral 3.0 mg, fasted, geo mean, read-out: t1/2 (converted)
  half-life: 7.99 h
[3]; [6]
  AUC: 972 ng·h/mL
  Cmax: 111 ng/mL
[3]; single oral 10 mg, fasted, geo mean, read-out: t1/2 (converted)
  half-life: 6.95 h
[3]; [7]
  AUC: 3530 ng·h/mL
  Cmax: 355 ng/mL
[3]; single oral 30 mg, fasted, geo mean, read-out: t1/2 (converted)
  half-life: 6.97 h
[3]; [8]
  AUC: 12500 ng·h/mL
  Cmax: 1120 ng/mL
[3]; single oral 100 mg, fasted, geo mean, read-out: t1/2 (converted)
  half-life: 14.6 h
[3]; [9]
  AUC: 31400 ng·h/mL
  Cmax: 2500 ng/mL
[3]; single oral 300 mg, fasted, geo mean, read-out: t1/2 (converted)
  half-life: 18.5 h
[3]; doses beyond 100 mg
  dose-proportionality of Cmax and AUC: slightly less than dose-proportional
[3]; up to 100 mg
  dose-proportionality of Cmax and AUC: no pronounced deviations from dose-proportionality; also recorded: approximately dose-proportionally
